Laboratory results: patent US20250011826A1, “mRNA CAP ANALOGUE AND USE THEREOF” (HANMI FINE CHEMICAL CO., LTD., priority 2021, published 2025)

What was measured:
T7 RNA polymerase = T7 RNA polymerase (Escherichia phage T7, UniProt P00573); assay: In vitro transcription of luciferase mRNA by co-transcriptional capping (IVT yield); format: biochemical; settings: 8 mM cap analog, luciferase DNA template, 37° C. 2 to 3 hours; compared with Cleancap AG(3′OMe) designated as 100%; FIG. 4
Method: For the mRNA synthesis reaction using the compounds prepared in Example 15 and Example 16 above, a transcription buffer was used, and the composition of the buffer was Tris-Cl buffer: spermidine:Triton X=4:2:1 volume ratio. In the buffer, 50 μg/ml luciferase DNA transcription template, 10 mM ATP, 10 mM CTP, 10 mM UTP, 2 mM GTP, and 8 mM compound prepared in Example 15 or Example 16, 300 KU/ml T7 RNA polymerase, 2 KU/ml RNase inhibitor protein, 20 U/ml inorganic pyrophosphatase, 40 mM Tris-HCl (pH 8.0), 50 mM magnesium chloride, and 10 mM dithiothreitol were added to prepare the transcription reaction mixture. […] The concentration of the purified mRNA sample was determined using a fluorometer instrument, and the total amount of mRNA was calculated by multiplying the concentration and reaction volume. Then, in order to derive the mRNA in vitro transcription (IVT) yield, the total amount of mRNA synthesized using each different cap analog was divided by the input L-DNA content to quantify the IVT yield value according to the cap analog. […] This may be calculated using [Equation 1] below. […]

HeLa cells = assay: Translation of luciferase mRNA in HeLa cells (luciferase activity after transfection of capped mRNA); format: cell-based
Method: The translational activity of the mRNAs generated by the IVT reactions of each Example 15, Example 16, and ^7mG(3OMe)pppA(2′OMe)pG was evaluated by transfecting the corresponding mRNAs into the HeLa cell line. All mRNAs synthesized through IVT reaction before transfection were subjected to poly(A) tailing process. Specifically, IVT mRNA, whose mRNA synthesis reaction was terminated by adding DNase 1, was mixed with IVT mRNA:10× poly (A) polymerase reaction buffer:10 mM ATP solution:poly (A) polymerase enzyme (4 KU/ml):nuclease-free water=20:10:10:2:58 ratio (volume/volume), reacted at 37° C. for 30 minutes to 1 hour, and then incubated at 4° C. to terminate the reaction. […] Cells were harvested 6, 12, and 24 hours after transfection, and luciferase activity was measured using Renilla-Glo™ Luciferase Assay kit (Promega catalog #E2710) according to the manufacturer's recommendations: After removing the medium from the transfected cells, 50 μl phosphate buffer solution (PBS) was added. Afterwards, 50 μl of Renilla-Glo™ Luciferase Assay reagent was added, mixed, and incubated for 10 minutes, and then luciferase activity was detected using Varioskan LUX Multimode Microplate Reader (Thermo Fisher) (FIG. 5). […]

Chain of T7 RNA polymerase (P00573 whole entry): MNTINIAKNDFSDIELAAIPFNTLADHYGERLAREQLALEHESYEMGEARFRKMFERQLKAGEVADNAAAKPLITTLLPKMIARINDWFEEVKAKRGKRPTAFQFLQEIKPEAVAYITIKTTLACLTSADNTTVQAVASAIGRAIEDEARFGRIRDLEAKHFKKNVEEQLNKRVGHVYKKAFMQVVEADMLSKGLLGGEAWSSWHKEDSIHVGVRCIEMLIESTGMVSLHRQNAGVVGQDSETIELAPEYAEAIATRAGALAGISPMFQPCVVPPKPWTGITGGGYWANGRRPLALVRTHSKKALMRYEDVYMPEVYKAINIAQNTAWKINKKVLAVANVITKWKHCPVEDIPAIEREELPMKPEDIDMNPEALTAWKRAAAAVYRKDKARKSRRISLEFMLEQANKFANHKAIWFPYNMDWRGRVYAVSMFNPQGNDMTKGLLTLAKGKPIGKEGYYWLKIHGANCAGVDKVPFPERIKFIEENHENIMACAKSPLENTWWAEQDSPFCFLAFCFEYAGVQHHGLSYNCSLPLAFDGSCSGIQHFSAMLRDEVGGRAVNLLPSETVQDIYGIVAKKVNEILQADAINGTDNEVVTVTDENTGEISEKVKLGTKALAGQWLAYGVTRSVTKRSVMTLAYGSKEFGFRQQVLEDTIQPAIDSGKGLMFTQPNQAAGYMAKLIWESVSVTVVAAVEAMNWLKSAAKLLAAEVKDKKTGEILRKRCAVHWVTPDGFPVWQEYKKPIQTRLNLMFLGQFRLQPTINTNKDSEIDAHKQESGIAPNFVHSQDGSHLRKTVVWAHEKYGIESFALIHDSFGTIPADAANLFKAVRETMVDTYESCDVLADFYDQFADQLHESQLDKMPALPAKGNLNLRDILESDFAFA

Compound	IVT yield of mRNA relative to ^7mG(3′OMe)pppA(2′OMe)pG (T7 RNA polymerase)	luciferase activity of mRNA capped with the compound (HeLa cells; 100 ng mRNA per well, 6 to 24 hours after transfection, compared with mRNA capped with ^7mG(3′OMe)pppA(2′OMe)pG, FIG. 5)	residual rate of protein expressed by capped mRNA (HeLa cells; 24 hours after transfection, inferred, compared with ^7mG(3′OMe)pppA(2′OMe)pG, FIG. 6)
CO[C@@H]1[C@H](OP(=O)(O)OC[C@H]2O[C@@H](n3cnc4c(=O)[nH]c(N)nc43)[C@H](O)[C@@H]2O)[C@@H](COP(=O)(O)OP(=O)(O)OP(=O)(O)OC[C@H]2O[C@@H](n3c[n+](C)c4c(=O)[nH]c(N)nc43)[C@H](OC(=O)C(C)(C)C)[C@@H]2OC(=O)C(C)(C)C)O[C@H]1n1cnc2c(N)ncnc21.[Na+].[Na+].[Na+] [Example 15, ^7mG(2′,3′ Pivaloyl)pppA(2′ OMe)pG]	almost the same yield	–	–
^7mG(2′ or 3′monopivaloyl)pppA(2′OMe)pG [Example 16]	almost the same yield	higher luciferase activity	higher
